Test results published in patent US11660293B2, “Substituted 2-azabicyclo[3.1.1]heptane and 2-azabicyclo[3.2.1]octane derivatives as orexin receptor antagonists” (Chronos Therapeutics Limited, priority 2017, dated 2023).

What was measured:
[1] = target: human Orexin type 1 receptors (Homo sapiens (Human), UniProt O43613); assay: Scintillation Proximity Assay (SPA) binding assay, [3H]SB-674042 displacement, CHO-hOX1 membranes
[2] = target: human Orexin type 2 receptors (Homo sapiens (Human), UniProt O43614); assay: Scintillation Proximity Assay (SPA) binding assay, [3H]EMPA displacement, HEK-hOX2 membranes
Sequence of human Orexin type 2 receptors (O43614 whole entry): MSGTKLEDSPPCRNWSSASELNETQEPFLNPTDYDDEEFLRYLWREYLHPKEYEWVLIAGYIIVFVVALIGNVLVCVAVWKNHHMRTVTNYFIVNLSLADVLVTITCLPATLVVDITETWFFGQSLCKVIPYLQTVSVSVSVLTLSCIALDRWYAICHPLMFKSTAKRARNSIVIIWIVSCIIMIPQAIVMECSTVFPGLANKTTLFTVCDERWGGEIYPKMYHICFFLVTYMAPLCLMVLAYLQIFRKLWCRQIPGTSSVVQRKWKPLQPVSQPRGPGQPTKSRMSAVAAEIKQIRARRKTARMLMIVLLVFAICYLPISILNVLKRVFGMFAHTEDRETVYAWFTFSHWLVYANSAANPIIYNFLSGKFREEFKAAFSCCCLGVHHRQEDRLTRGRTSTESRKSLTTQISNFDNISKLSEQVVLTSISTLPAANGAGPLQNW

Sequence of human Orexin type 1 receptors (O43613 whole entry): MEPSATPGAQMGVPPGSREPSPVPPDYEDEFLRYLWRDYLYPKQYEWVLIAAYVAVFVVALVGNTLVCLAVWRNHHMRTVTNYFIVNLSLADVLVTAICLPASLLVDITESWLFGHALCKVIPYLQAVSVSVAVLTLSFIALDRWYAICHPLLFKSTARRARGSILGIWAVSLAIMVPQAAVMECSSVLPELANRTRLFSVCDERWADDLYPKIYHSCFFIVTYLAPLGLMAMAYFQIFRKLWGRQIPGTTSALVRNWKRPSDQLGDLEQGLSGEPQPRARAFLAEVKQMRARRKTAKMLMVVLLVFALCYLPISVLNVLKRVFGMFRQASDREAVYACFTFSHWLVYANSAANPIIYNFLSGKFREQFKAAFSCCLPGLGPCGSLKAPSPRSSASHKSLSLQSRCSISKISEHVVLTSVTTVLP

Compound | OX1 pKi (SPA binding) ([1]; Table 1, [3H]SB-674042 2 nM) | OX2 pKi (SPA binding) ([2]; Table 1, [3H]EMPA 2 nM) | OX1 pKi (SPA binding) ([1]; Table 2, [3H]SB-674042 2 nM) | OX2 pKi (SPA binding) ([2]; Table 2, [3H]EMPA 2 nM)
Cc1ccc(-n2nccn2)c(C(=O)N2C3CC(C3)[C@H](C)C2COc2ccc(F)cc2)c1 (stereo partly drawn) [Example 109, trans-3-[(4-fluorophenoxy)methyl]-4-methyl-2-[5-methyl-2-(2H-1,2,3-triazol-2-yl)benzoyl]-2-azabicyclo[3.1.1]heptane] | 7.51 | 5.89 |  | 
Cc1ccc(-n2nccn2)c(C(=O)N2C3CC(C3)[C@H](C)C2COc2nc3ccc(F)cc3s2)n1 (stereo partly drawn) [Example 110, trans-6-fluoro-2-({4-methyl-2-[6-methyl-3-(2H-1,2,3-triazol-2-yl)pyridine-2-carbonyl]-2-azabicyclo[3.1.1]heptan-3-yl}methoxy)-1,3-benzothiazole] | 7 | 6.06 |  | 
Cc1ccc(-n2nccn2)c(C(=O)N2C3CC(C3)[C@H](C)C2COc2ccc(Cl)cc2)n1 (stereo partly drawn) [Example 112, trans-3-[(4-chlorophenoxy)methyl]-4-methyl-2-[6-methyl-3-(2H-1,2,3-triazol-2-yl)pyridine-2-carbonyl]-2-azabicyclo[3.1.1]heptane] | 7.83 | 5.92 |  | 
Cc1nc(C(=O)N2C3CC(C3)[C@@H](C)C2COc2ccc(F)cc2)c(-n2nccn2)s1 (stereo partly drawn) [Example 140, cis-3-[(4-flurophenoxy)methyl]-4-methyl-2-[2-methyl-5-(2H-1,2,3-triazol-2-yl)-1,3-thiazole-4-carbonyl]-2-azabicyclo[3.1.1]heptane] |  |  | 7.49 | 6.22
Cc1ccc(-c2sc(C)nc2C(=O)N2C3CC(C3)[C@@H](C)C2COc2ccc(F)cc2)cn1 (stereo partly drawn) [Example 143, cis-3-[(4-fluorophenoxy)methyl]-4-methyl-2-[2-methyl-5-(6-methylpyridin-3-yl)-1,3-thiazole-4-carbonyl]-2-azabicylco[3.1.1]heptane] |  |  | 7.14 | 5.93
Cc1ccc(-n2nccn2)c(C(=O)N2C3CC(C3)[C@H](C)C2CNc2nc3ccc(F)cc3s2)n1 (some centres unmarked) [Example 147] |  |  | 7.57 | 6.66
Cc1ccc(-n2nccn2)c(C(=O)N2C3CC(C3)[C@H](C)C2CNc2ncc3ccccc3n2)n1 (stereo partly drawn) [Example 149, trans-N-({4-methyl-2-[6-methyl-3-(2H-,2,3-triazol-2-yl)pyridine-2-carbonyl]-2-azabicyclo[3.1.1]heptan-3-yl}methyl)quinazolin-2-amine] |  |  | 6.82 | 5.72
Cc1ccc(-n2nccn2)c(C(=O)N2C3CC(C3)[C@H](C)C2CNc2nc3ccccc3s2)n1 (stereo partly drawn) [Example 150, trans-N-({4-methyl-2-[6-methyl-3-(2H-1,2,3-triazol-2-yl)pyridine-2-carbonyl]-2-azabicyclo[3.1.1]heptan-3-yl}methyl)-1,3-benzothiazol-2-amine] |  |  | 7.5 | 6.14
Cc1ccc(-n2nccn2)c(C(=O)N2C3CC(C3)[C@@H](C)C2CNc2cc3ccccc3cn2)n1 (stereo partly drawn) [Example 151, cis-N-({4-methyl-2-[6-methyl-3-(2H-1,2,3-triazol-2-yl)pyridine-2-carbonyl]-2-azabicyclo[3.1.1]heptan-3-yl}methyl)isoquinolin-3-amine] |  |  | 7.59 | 5.42
Cc1ccc(-n2nccn2)c(C(=O)N2C3CC(C3)[C@@H](C)C2CNc2ncc3ccccc3n2)n1 (stereo partly drawn) [Example 155, cis-N-({4-methyl-2-[6-methyl-3-(2H-1,2,3-triazol-2-yl)pyridin-2-carbonyl]-2-azabicyclo[3.1.1]heptan-3-yl}methyl)quinazolin-2-amine] |  |  | 7.71 | 5.49
C[C@@H]1C2CC(C2)N(C(=O)c2cc(C#N)ccc2-n2nccn2)C1CNc1nc2ccc(F)cc2s1 (stereo partly drawn) [Example 175, cis-3-(3-{[(6-fluoro-1,3-benzothiazol-2-yl)amino]methyl}-4-methyl-2-azabicyclo[3.1.1]heptane-2-carbonyl)-4-(2H-1,2,3-triazol-2-yl)benzonitrile] |  |  | 8.41 | 6.02
Cc1ccc(-n2nccn2)c(C(=O)N2C3CC(C3)[C@@H](C)C2CNc2nc3ccccc3s2)n1 (stereo partly drawn) [Example 178, cis-N-({4-methyl-2-[6-methyl-3-(2H-1,2,3-triazol-2-yl)pyridine-2-carbonyl]-2-azabicyclo[3.1.1]heptan-3-yl}methyl)-1,3-benzothiazol-2-amine] |  |  | 8.52 | 5.63
Cc1ccc(-n2nccn2)c(C(=O)N2C3CC(C3)[C@@H](C)C2CNc2nc3cccnc3s2)n1 (stereo partly drawn) [Example 184, cis-N-({4-methyl-2-[6-methyl-3-(2H-1,2,3-triaozl-2-yl)pyridine-2-carbonyl]-2-azabicyclo[3.1.1]heptan-3-yl}methyl)-[1,3]thiazolo[5,4-b]pyridin-2-amine] |  |  | 8.08 | 5.07
Cc1ccc(-c2nccs2)c(C(=O)N2C3CC(C3)[C@@H](C)C2CNc2ccc(F)cc2)c1 (stereo partly drawn) [Example 202, cis-4-fluoro-N-({4-methyl-2-[5-methyl-2-(1,3-thiazol-2-yl)benzoyl]-2-azabicyclo[3.1.1]heptan-3-yl}methyl)aniline] |  |  | 6.71 | 6.02
C[C@@H]1C2CC(C2)N(C(=O)c2cc(C#N)ccc2-n2nccn2)C1CNc1nc2cccnc2s1 (stereo partly drawn) [Example 231, cis-3-{4-methyl-3-[({[1,3]thiazolo[5,4-b]pyridin-2-yl}amino)methyl]-2-azabicyclo[3.1.1]heptane-2-carbonyl}-4-(2H-1,2,3-triazol-2-yl)benzonitrile] |  |  | 8.2 | 5.21
C[C@@H]1C2CC(C2)N(C(=O)c2cc(Cl)ccc2-n2nccn2)C1CNc1ncc(C(F)(F)F)cn1 (stereo partly drawn) [Example 239, cis-N-({2-[5-chloro-2-(2H-1,2,3-triazol-2-yl)benzoyl]-4-methyl-2-azabicyclo[3.1.1]heptan-3-yl}methyl)-5-(trifluoromethyl)pyrimidin-2-amine] |  |  | 8.04 | 5.51
C[C@@H]1C2CC(C2)N(C(=O)c2cc(Cl)ccc2-n2nccn2)C1CNc1ccc(C(F)(F)F)nn1 (stereo partly drawn) [Example 247, cis-N-({2-[5-chloro-2-(2H-1,2,3-triazol-2-yl)benzoyl]-4-methyl-2-azabicyclo[3.1.1]heptan-3-yl}methyl)-6-(trifluoromethyl)pyridazin-3-amine] |  |  | 6.74 | 4.88
C[C@@H]1C2CC(C2)N(C(=O)c2cc(F)ccc2-n2nccn2)C1CNc1ncc(C(F)(F)F)cn1 (some centres unmarked) [Example 251] |  |  | 7.65 | 4.69
C[C@@H]1C2CC(C2)N(C(=O)c2ccc(F)cc2-n2nccn2)C1CNc1cnc(C(F)(F)F)cn1 (some centres unmarked) [Example 252] |  |  | 7.19 | 4.95
C[C@@H]1C2CC(C2)N(C(=O)c2c(F)cccc2-n2nccn2)C1CNc1cnc(C(F)(F)F)cn1 (some centres unmarked) [Example 253] |  |  | 7.88 | 5
Cc1ccc(-n2nccn2)c(C(=O)N2C3CC(C3)[C@@H](C)C2CNc2cnc(C(F)(F)F)cn2)c1 (some centres unmarked) [Example 254] |  |  | 8.37 | 5.12
C[C@@H]1C2CC(C2)N(C(=O)c2cc(Cl)ccc2-n2nccn2)C1CNc1cnc(C2CC2)cn1 (some centres unmarked) [Example 257] |  |  | 7.58 | 5.41
